Reference: PMC4977651, “Molecular features of biguanides required for targeting of mitochondrial respiratory complex I and activation of AMP-kinase” (BMC Biology, 2016)
Where “and” joins values, the source holds several entries; their conditions need not be identical. Identical values can stand only once.

What was measured:
AMPK-α (phospho-Thr172) = test: AMPK activation, western blot of phospho-AMPK-α in MDBK cells; assay type: cell-based, Bos taurus; conditions: for p-alpha: band intensity
Method: MDBK cells were seeded at 1 × 10^6 cells per 6 cm dish in DMEM containing 10 % FBS. […] After 18 h cells were harvested by a rapid lysis procedure: cells were rinsed with PBS, then lysed using ice-cold buffer containing 50 mM HEPES, 1 mM EDTA, 10 % glycerol, 50 mM NaF, 5 mM sodium pyrophosphate, 1 % Triton-X100, 1 mM dithiothreitol (DTT), and a protease inhibitor cocktail (Roche). The cell lysate was centrifuged at 14,000 × g for 20 min at 4 °C and the protein concentration of the supernatant determined by bicinchoninic acid assay. The lysate was analyzed using Novex 3–12 % bis-Tris gels run in 3-(N-morpholino)propanesulfonic acid (MOPS) buffer (20 μg of protein per lane) followed by transfer to low fluorescence polyvinylidene fluoride membranes by wet transfer. Primary rabbit antibodies for AMPK-β (57C12), AMPK-α (phospho-Thr172) (40H9), and acetyl-coA carboxylase (phospho-Ser79) (Cell Signaling Technology) were incubated overnight with the membrane (1:1000 dilution) in Odyssey blocking buffer at 4 °C. A fluorescent secondary antibody was used (IRDYE800CW from LI-COR Biosciences, 1:20,000 dilution) with a LI-COR Odyssey imaging system.

[1] = target: mouse heart mitochondrial membranes (complex I) (Mus musculus, UniProt P03888+P03899+Q91WD5+Q9DC70); test: NADH:O2 oxidoreduction by mouse heart mitochondrial membranes; assay type: biochemical
Sequence of mouse heart mitochondrial membranes (complex I) (P03899 whole entry): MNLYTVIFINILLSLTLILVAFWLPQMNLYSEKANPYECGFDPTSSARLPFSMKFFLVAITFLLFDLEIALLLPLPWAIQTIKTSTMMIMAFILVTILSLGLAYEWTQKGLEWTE
Sequence of mouse heart mitochondrial membranes (complex I) (P03888 whole entry): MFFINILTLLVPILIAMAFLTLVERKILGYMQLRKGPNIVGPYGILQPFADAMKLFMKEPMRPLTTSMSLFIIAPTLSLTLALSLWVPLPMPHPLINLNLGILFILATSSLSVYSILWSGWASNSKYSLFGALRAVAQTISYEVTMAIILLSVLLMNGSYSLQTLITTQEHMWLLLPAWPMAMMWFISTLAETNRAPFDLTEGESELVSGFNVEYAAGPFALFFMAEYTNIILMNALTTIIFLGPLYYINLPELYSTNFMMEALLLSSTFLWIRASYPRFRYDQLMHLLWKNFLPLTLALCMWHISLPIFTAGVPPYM
Sequence of mouse heart mitochondrial membranes (complex I) (Q9DC70 36-224): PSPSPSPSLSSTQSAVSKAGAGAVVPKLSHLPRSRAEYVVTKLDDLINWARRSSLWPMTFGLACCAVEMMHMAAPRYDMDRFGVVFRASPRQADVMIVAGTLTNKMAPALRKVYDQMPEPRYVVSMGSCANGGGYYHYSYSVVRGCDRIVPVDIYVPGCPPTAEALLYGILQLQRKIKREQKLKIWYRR
Sequence of mouse heart mitochondrial membranes (complex I) (Q91WD5 34-463): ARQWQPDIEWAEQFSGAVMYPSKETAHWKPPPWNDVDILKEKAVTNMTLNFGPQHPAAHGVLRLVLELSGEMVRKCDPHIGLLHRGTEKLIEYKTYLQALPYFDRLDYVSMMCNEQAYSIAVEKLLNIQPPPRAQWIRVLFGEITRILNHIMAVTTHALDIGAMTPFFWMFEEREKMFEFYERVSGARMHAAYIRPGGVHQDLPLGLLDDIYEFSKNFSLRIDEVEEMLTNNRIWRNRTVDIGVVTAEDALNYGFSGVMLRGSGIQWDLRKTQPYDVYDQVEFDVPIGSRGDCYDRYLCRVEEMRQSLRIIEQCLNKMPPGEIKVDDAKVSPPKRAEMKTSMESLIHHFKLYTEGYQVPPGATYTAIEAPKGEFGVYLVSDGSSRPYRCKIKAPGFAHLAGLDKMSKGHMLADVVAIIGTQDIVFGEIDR
Method: (§1) Complex I and mitochondrial membranes were prepared from Bos taurus (bovine) heart. Intact mitochondria were isolated from rat liver and mouse heart and liver. Membranes were prepared from mouse heart mitochondria by 5 s bursts of sonication at 4 °C and collected by centrifugation (75,000 × g, 1 h).
Assays were performed at 32 °C in a SpectraMax 96-well plate reader. NADH:decylubiquinone oxidoreduction by complex I at 0.5 μg mL^−1 was measured in 20 mM Tris-HCl (pH 7.2), 0.15 % soy bean asolectin (Avanti Polar Lipids), and 0.15 % 3-((3-cholamidopropyl)dimethylammonium)-1-propanesulfonate (CHAPS, Merck Chemicals Ltd), with 200 μM decylubiquinone and 200 μM NADH, and monitored using ε340–380(NADH) = 4.81 mM^−1 cm^−1 [23]. Catalysis was initiated by addition of NADH and maximal rates determined by linear regression. NADH:O2 oxidoreduction by membranes was measured similarly but using 5 μg mL^−1 membranes in 10 mM Tris-HCl (pH 7.4) and 250 mM sucrose using 200 μM NADH and supplemented with 0.15 mM horse heart cytochrome c (Sigma-Aldrich Ltd.). Succinate:O2 oxidoreduction was measured using 40 μg mL^−1 membranes in 5 mM succinate in 10 mM Tris-HCl (pH 7.4) as described previously. Control experiments included NaCl (to match the ionic strength) or DMSO, as appropriate.
Experimental values are reported as mean averages ± standard deviation (SD) of technical replicates for large sample sizes and mean averages ± standard error of the mean (SEM) of technical replicates for small sample sizes. Data were analyzed by the unpaired two-tailed Student’s t test. IC50 values were determined using the standard dose-effect relationship (activity (%) = 100 × IC50 / (IC50 + [inhibitor]^m) with the Hill Slope (m) set to unity for purified complex I) and are reported with 95 % confidence intervals.

permeabilized 143B cells = test: ADP-stimulated rotenone-sensitive OCR in permeabilized 143B cells; assay type: cell-based, human; set-up: rotenone sensitive OCR after ADP stimulation, individual replicates / rotenone sensitive OCR after ADP stimulation, average: unit not given here; conditions: 143B permeabilised cells
Method: For permeabilized cell experiments, cells were seeded into XF96 plates at 0.9–1.1 × 10^4 per well and incubated for 48 h at 37 °C in 5 % CO2. Then, the growth medium was exchanged for assay buffer containing 3 nM plasma membrane permeabilizer ‘PMP’ (Seahorse Biosciences Inc.), 10 mM glutamate, 10 mM malate, 220 mM mannitol, 70 mM sucrose, 10 mM KH2PO4, 5 mM MgCl2, 1 mM EGTA, 0.2 % fatty acid-free bovine serum albumin (BSA), and 2 mM HEPES (pH 7.4 at 37 °C). […] The biguanides were allowed to accumulate for 30 min, then respiration was […] by the addition of 4 mM ADP. Rotenone was added (2 μM) at the end of the experiment.
Rotenone-sensitive OCRs were calculated by subtracting the rotenone-insensitive rates (determined at the end of the experiment). OCRs were normalized by dividing by the OCR recorded immediately prior to the addition of biguanide. For rate of uptake calculations, the OCRs at time points after biguanide addition were divided by the OCRs at the same time points in control experiments. Data from wells with failed port injections were excluded from the analyses. The respiratory control ratio (RCR) values (state III versus state IV respiration) were ~11 and ~6 for permeabilized MDBK and 143B cells, respectively.

mouse heart mitochondria = test: ADP-stimulated rotenone-sensitive OCR in isolated mouse heart mitochondria; assay type: biochemical; set-up: rotenone sensitive OCR after ADP stimulation, individual replicates / rotenone sensitive OCR after ADP stimulation, average / rotenone sensitive OCR after 15 mins, average: unit not given here
Method: as §1
Isolated mitochondria were monitored using a Seahorse XF96 extracellular flux analyzer at 32 °C. Mouse heart mitochondria, and mouse and rat liver mitochondria were plated into XF96 plates at 4 and 16–20 μg per well, respectively, in 220 mM mannitol, 70 mM sucrose, 10 mM KH2PO4, 5 mM MgCl2, 1 mM EGTA, 0.2 % fatty acid-free BSA, and 2 mM HEPES (pH 7.4 at 37 °C) with 10 mM glutamate and 10 mM malate and adhered by centrifugation (2000 × g, 20 min, 4 °C). The medium was supplemented with a further 5 mM glutamate and 5 mM malate and the mitochondria incubated for 15 min. Then two baseline readings were taken before the biguanides were added at IC50/5. […] Rotenone (2 μM) was added at the end of the experiment. Data from wells with failed port injections were excluded from the analyses. The RCR values (state III versus state IV respiration) were 3.4, 4.8, and 4.6 for mouse heart, rat liver, and mouse liver, respectively.

Structure (SMILES): NC(N)=NC(N)=NCCc1ccc(Cl)cc1 [compound 1, 2-[2-(4-chlorophenyl)ethyl]-1-(diaminomethylidene)guanidine]
- AMPK activation (in words) (AMPK-α (phospho-Thr172); 18-h treatment, IC50/10 biguanide concentrations): slightly lower activation
- p-alpha, average normalised to control (AMPK-α (phospho-Thr172); Averages of experiments 1-3, 18 hours): 5.54
- p-alpha / AMPK beta (AMPK-α (phospho-Thr172); Experiment 1, 18 hours): 0.63
- p-alpha / AMPK beta normalised to control (AMPK-α (phospho-Thr172); Experiment 1, 18 hours): 5.05
- p-alpha (AMPK-α (phospho-Thr172); Experiment 1, 18 hours): 288
- p-alpha / AMPK beta (AMPK-α (phospho-Thr172); Experiment 2, 18 hours): 1.08
- p-alpha / AMPK beta normalised to control (AMPK-α (phospho-Thr172); Experiment 2, 18 hours): 7.41
- p-alpha (AMPK-α (phospho-Thr172); Experiment 2, 18 hours): 388
- p-alpha / AMPK beta (AMPK-α (phospho-Thr172); Experiment 3, 18 hours): 0.86
- p-alpha / AMPK beta normalised to control (AMPK-α (phospho-Thr172); Experiment 3, 18 hours): 4.15
- p-alpha (AMPK-α (phospho-Thr172); Experiment 3, 18 hours): 220
- HillSlope (best fit value) ([1]; Prism variable slope fit): -0.8311
- IC50 ([1]; Prism variable slope fit, Bottom 0, Top 100, read-out: IC50 (best fit value)): 465 µM
- remaining activity at 130 µM ([1]; inhibitor 0.13 mM, read-out: average % (rate, % of no-inhibitor control)): 75.2%
- remaining activity at 250 µM ([1]; inhibitor 0.25 mM, read-out: average % (rate, % of no-inhibitor control)): 62.1%
- remaining activity at 500 µM ([1]; inhibitor 0.50 mM, read-out: average % (rate, % of no-inhibitor control)): 47.6%
- remaining activity at 1000 µM ([1]; inhibitor 1.00 mM, read-out: average % (rate, % of no-inhibitor control)): 36.7%
- remaining activity at 2500 µM ([1]; inhibitor 2.50 mM, read-out: average % (rate, % of no-inhibitor control)): 19.7%
- remaining activity at 5000 µM ([1]; inhibitor 5.00 mM, read-out: average % (rate, % of no-inhibitor control)): 9.86%
- remaining activity at 10000 µM ([1]; inhibitor 10.00 mM, read-out: average % (rate, % of no-inhibitor control)): 8.63%
- LogIC50 (best fit value) ([1]; log of IC50 in mM, Prism variable slope fit): -0.3323
- rotenone sensitive OCR after ADP stimulation, % of control, average (permeabilized 143B cells; average of replicates): 10.59 % of control
- rotenone sensitive OCR after ADP stimulation, average (permeabilized 143B cells; average of replicates): 25.27
- rotenone sensitive OCR after ADP stimulation, % of control, individual replicates (permeabilized 143B cells; replicate 1-11): 28.33 % of control and 12.14 % of control and 11.88 % of control and 16.92 % of control and 4.82 % of control and 10.72 % of control and 0.16 % of control and 5.78 % of control and 8.84 % of control and 6.27 % of control
- rotenone sensitive OCR after ADP stimulation, individual replicates (permeabilized 143B cells; replicate 1-11): 67.63 and 28.97 and 28.36 and 40.38 and 11.50 and 25.59 and 0.37 and 13.80 and 21.11 and 14.98
- rotenone sensitive OCR after ADP stimulation, % of control, average (mouse heart mitochondria; average of replicates): 42.96 % of control
- rotenone sensitive OCR after ADP stimulation, average (mouse heart mitochondria; average of replicates): 104.05
- rotenone sensitive OCR after ADP stimulation, % of control, individual replicates (mouse heart mitochondria; replicate 1-11): 59.58 % of control and 56.94 % of control and 47.63 % of control and 43.78 % of control and 42.25 % of control and 48.37 % of control and 28.35 % of control and 16.80 % of control
- rotenone sensitive OCR after ADP stimulation, individual replicates (mouse heart mitochondria; replicate 1-12): 144.30 and 137.90 and 115.35 and 106.02 and 102.33 and 117.15 and 68.67 and 40.69
